“Also recorded” adds a separate entry of the source.

The assay has as its system Rad17 self-interaction (Rad17/Rad17). In words: DIPI assay (DNA-damage-induced increased protein interaction), two-hybrid colony growth on -His medium. Type of assay: cell-based, Saccharomyces cerevisiae. The conditions noted are these: for Rad17 self-interaction response in DIPI assay (colony growth on -His medium): wild-type reporter strain CG1945, pCAD1-Rad17/pGBT9-Rad17, plate assay. The source says: A reporter strain is co-transformed with Rad17-Gal4-DNA-binding-domain and Rad17-Gal4-transcriptional-activation-domain fusions (“bait” and “prey” plasmids). Enhanced protein-protein interaction is visualized by activation of a Gal4responsive chromosomal reporter gene construct required for histidine synthesis (HIS3) (FIG. 1).
These cells are exposed to a DNA-damaging agent in form of a gradient on a histidine-omission plate. […] It should also be mentioned that the use of a blue color marker (LacZ gene) is possible. It is not unusual that the context of a promoter affects the specific interaction and may be easily addressed by switching to one of a wide variety or readily available commercial and non-commercial expression systems.
[pCAD1-Rad17/pGBT9-Rad17], respectively. […] Responses in a wild-type reporter strain (WT, left two plates) and a mutant deleted for topoisomerase I (top1δ, right) are compared. Cells of the reporter strain (CG1945), previously co-transformed with Rad17 bait/prey Gal4-fusions (pCAD1-Rad17/pGBT9-Rad17) were plated as indicated. The genotoxic agent CPT or DMSO (solvent control) was applied on a filter paper.
Using manual replicating on large petri dishes, these were transferred to -His plates that had been inoculated with cells of a reporter strain, co-transformed with Rad17 bait/prey plasmids as described.
DIPI assay was performed in a high-throughput mode. The Petri dish assay was adapted to the 96 well plate format in order to use conventional high-throughput machinery. Two protocols were explored (FIG. 4). In both cases, the selective agar medium lacking leucine, tryptophan and histidine was poured in the plate wells. In protocol 1, cell suspension was pipeted on top of the plate and, after drying, a sample of CPT. In protocol 2, cells were mixed with agar and pipeted, resulting in a cell-containing agar layer. CPT was added on top. After 3-4 days, the plates were evaluated for colony growth.
All cells will be exposed to a CPT concentration that leads to some low amount of colony formation on selective medium. Briefly, the haploid two-hybrid reporter strain CG1945 (4) is co-transformed with plasmids pGBT9Rad17 and pCAD1-Rad17. […] The selected co-transformant is grown up to stationary phase in yeast synthetic medium (SM) without tryptophan and leucine to retain both plasmids. Incubation period is typically two days at 30° C. with shaking. The standard recipe for yeast SM calls for 2% dextrose, 0.67% yeast nitrogen base with ammonium sulfate/without amino acids (e.g. from US Biological) and a -Trp-Leu amino acid dropout mix (Qbiogene, Inc.).

Consider `CC[C@@]1(O)C(=O)OCc2c1cc1n(c2=O)Cc2cc3ccccc3nc2-1` [camptothecin], for which the “Rad17 self-interaction response in DIPI assay (colony growth on -His medium)” value (from here on “Rad17 self-interaction response”) is given as “very responsive; also recorded: increasing Rad17 self-interaction”. Further, the “number of colonies in DIPI assay, 96 well plate format” value (96 well plate, after 3-4 days, compared to control (DMSO), listed as CPT) is given as “number of colonies increased significantly; also recorded: number of colonies is increased”. For the same compound, for the setting “top1δ background (topoisomerase I deleted)”, the “Rad17 homomeric interaction response in DIPI assay” value is “absence of increased homomeric Rad17 interaction”. For the same compound, the “Rad17 self-interaction response” value (listed as CPT) is given as “positive CPT response”.
Consider `CC[C@@]1(OC(=O)CN)C(=O)OCc2c1cc1n(c2=O)Cc2cc3ccccc3nc2-1.Cl` [NSC606985, glycine 4-ethyl-3,4,12,14-tetrahydro-3,14-dioxo-1H-pyrano[3′, 4′:6,7]indolizino[1,2-b]quinolin-4-yl ester, (S)-monohydrochloride], for which the “Rad17 self-interaction response” value is reported as “increasing Rad17 self-interaction”.

Values taken from patent publication US20080045419A1, “Screening Assay” (priority 2006, published 2008).
